Reference: patent US20040220164A1, “Triaza compound immunoregulatory agents” (priority 2001, published 2004)
Converted amounts (≈) assume the structure as drawn. Like-named read-outs stand apart in the source and are kept apart here.

How the values were obtained:
CD4 [1] = target: T1, CD4 (Homo sapiens, UniProt P01730); test: CD4 down-modulation, flow cytometry with FITC-conjugated anti-CD4 (SK3) mAb, MT-4 cells; format: cell-based; set-up: To study the effect of the CADA derivatives on surface CD4 antigen expression, MT-4 and SupT1 cells were incubated; endogenous in cells; host or cells: MT-4, SupT1, PBMC; conditions: for IC50: MT-4 cells, day 3, read-out: IC50 CD4 (50% inhibition of extracellular CD4 expression) (converted); for CD4 down-modulating activity compared with CADA or parent analog (in words): structure-activity discussion of Table 5 (MT-4 and SupT1 cells); for CD4 down-modulating activity, fold less active than CADA: compared to CADA, MT-4 cells (stated for some compounds)
Description: Flow Cytometric Analyses. To study the effect of the CADA derivatives on surface CD4 antigen expression, MT-4 and SupT1 cells were incubated with a serial 5-fold dilution of the compounds (50, 10, 2, 0.4 and 0.08 μg/ml) or medium at 37° C. […] Briefly, after washing with phosphate-buffered saline (PBS) containing 2% fetal calf serum (FCS), cells were incubated with FITC-conjugated anti-CD4 (SK3) mAb for 30 min at 4° C. As a negative control for a specific background staining, cells were stained in parallel with Simultest Control γ1/γ^2a (Becton Dickinson). Then the cells were washed, fixed with 1% formaldehyde and analyzed by flow cytometry in a FACScalibur (Becton Dickinson, San Jose, Calif., USA). Data were acquired and analyzed with CellQuest software (Becton Dickinson). For the calculation of the CD4 receptor expression, the mean fluorescence intensity (MFI) of each sample was expressed as percentage of the MFI of control cells (after subtracting the MFI of the isotype control). Finally, the IC50 value of the compounds (i.e., the concentration of the compound required for 50% inhibition of extracellular CD4 expression) was calculated.

[2] = Cytotoxicity assay (trypan blue exclusion, propidium iodide); format: cell-based, human; conditions: human
Description: Cytotoxicity Assay. Cellular toxicity of the compounds was measured by trypan blue exclusion and also by Propidium Iodide by flow cytometry after 3 or 4 days of incubation, in parallel with the CD4 antigen expression. The CC50 value of each CADA analog is the concentration (in μg/ml) required to reduce the viability of the cells by 50%.

HHV-7 (KHR strain) = test: Anti-HHV-7 assay in SupT1 cells (antigen expression, flow cytometry, Example 3); format: cell-based; conditions: SUP-T1; SupT1 cells; read-out: IC50 HHV-7 (50% reduction of HHV-7 antigen expression)
Description: For HHV-7, five-fold dilutions of the compounds were added in 500 μl culture medium in 24-well flat bottom plates (Iwaki, Japan), whereupon 2×10^5 SupT1 cells were added in 400 μl culture medium. After 30 min incubation at room temperature, 100 μl of HHV-7 stock was added to each well. HHV-7-infected and mock-infected SupT1 cells were cultured in a final volume of 1 ml medium in the absence of the compounds. On day 4, half of the medium and the cells were replaced and fresh medium without new compound was added. This procedure was repeated every 2 or 3 days. The CPE was checked regularly microscopically. When CPE was observed, the HHV-7 antigen expression was monitored by flow cytometry, as described previously (Zhang, Y. et al. (1999) “Selective activity of various antiviral compounds against HHV-7 infection Antiviral Res. 43, 23-35.)

HIV-1 strain NL4.3 = test: Anti-HIV-1 assay in MT-4 cells (p24 Ag ELISA, Example 3); format: cell-based
Description: Antiviral Assays. For HIV-1, MT-4 cells were infected with the HIV-1 strain NL4.3. Briefly, five-fold dilutions of the compounds (in 100 μl) were added to 96-well flat bottom plates (Iwaki, Japan). Then, to each well, 7.5×10^4 MT-4 cells were added in 50 μl medium, followed by 50 μl of diluted HIV-1 stock (strain NL4.3). Cytopathic effect (CPE) induced by the virus was checked regularly microscopically. When strong CPE was observed (after 3 to 5 days of incubation) in untreated HIV-1 infected cells, the supernatant was collected, stored at −20° C. and analyzed for HIV-1 core antigen by p24 Ag ELISA (NEN™, PerkinElmer Life Sciences, Boston, Mass.). Finally, the IC50 value of the compounds (i.e., the concentration of the compound required for 50% reduction of HIV infection as measured by viral p24 antigen level in the supernatant of infected MT-4 cells) was calculated.

CD4 [3] = target: T1, CD4; test: CD4 down-modulation, flow cytometry with FITC-conjugated anti-CD4 (SK3) mAb, SupT1 cells; format: cell-based; set-up: To study the effect of the CADA derivatives on surface CD4 antigen expression, MT-4 and SupT1 cells were incubated; endogenous in cells; host or cells: MT-4, SupT1, PBMC; conditions: day 4, read-out: IC50 CD4 (50% inhibition of extracellular CD4 expression) (converted)
Description: Flow Cytometric Analyses. To study the effect of the CADA derivatives on surface CD4 antigen expression, MT-4 and SupT1 cells were incubated with a serial 5-fold dilution of the compounds (50, 10, 2, 0.4 and 0.08 μg/ml) or medium at 37° C. Cell surface CD4 antigen expression was analyzed at day 3 (MT-4) or day 4 (SupT1). Briefly, after washing with phosphate-buffered saline (PBS) containing 2% fetal calf serum (FCS), cells were incubated with FITC-conjugated anti-CD4 (SK3) mAb for 30 min at 4° C. As a negative control for a specific background staining, cells were stained in parallel with Simultest Control γ1/γ^2a (Becton Dickinson). Then the cells were washed, fixed with 1% formaldehyde and analyzed by flow cytometry in a FACScalibur (Becton Dickinson, San Jose, Calif., USA). Data were acquired and analyzed with CellQuest software (Becton Dickinson). For the calculation of the CD4 receptor expression, the mean fluorescence intensity (MFI) of each sample was expressed as percentage of the MFI of control cells (after subtracting the MFI of the isotype control). Finally, the IC50 value of the compounds (i.e., the concentration of the compound required for 50% inhibition of extracellular CD4 expression) was calculated.

CD4 [4] = target: T1, CD4; test: Cell surface CD4 expression by flow cytometry (anti-CD4 mAb Leu3a-PE); format: cell-based; set-up: To study the effect of the CADA derivatives on surface CD4 antigen expression, MT-4 and SupT1 cells were incubated; endogenous in cells; host or cells: MT-4, SupT1, PBMC; conditions: staurosporine together with CADA
Description: FIGS. 2A-2C. Surface CD4 expression in MT-4 cell line, SupT1 cell line and PBMCs after incubation with CADA hydrochloride (3.2 or 16 μM) for 1 and 4 days. (A) Cell surface CD4 expression of control MT-4 cells and MT-4 cells treated with CADA (3.2 μM) for 1 day or 4 days. (B) Cell surface CD4 expression of control SupT1 cells and SupT1 cells treated with CADA (3.2 μM) for 1 day or 4 days. (C) Cell surface CD4 expression of control PBMCs and PBMCs treated with CADA (16 μM) for 1 day or 4 days. The cells were stained with anti-CD4 mAb (Leu3a-PE). Percentages of fluorescent cells and MFI (mean fluorescence intensity) are indicated in each histogram.
FIG. 4. Comparison of the effects on CD4 modulation by ATA (24 μM), CADA hydrochloride (16 μM) and PMA (8 nM) in SupT1 cells after incubation with the compounds analyzed after 20 minutes, 4 hours, 1 day and 4 days.
Cells were incubated with CADA hydrochloride and the CD4 expression on the cell surface was analyzed. […] In peripheral blood mononuclear cells (PBMCs), the percentage of CD4 expression decreased to 0.2% after incubation with CADA (16 μM) for 4 days (FIG. 2).
Expression of various other surface antigens was also examined in MT-4 cells, SupT1 cells and PBMCs after incubation with CADA (16 μM) or CADA-free medium at 37° C. for 4 days. After washing with phosphate-buffered saline (PBS) containing 2% FCS(fetal calf serum), the cells were incubated with mAb (as indicated in Table 1) for 20 min at 4° C. Then the cells were washed, fixed with 1% formaldehyde and analyzed by flow cytometry. All mAbs were purchased from Becton-Dickinson (Erembodegem, Belgium).
CADA was compared with ATA and PMA with regard to their down-modulating effects. […] At day 4, the CD4 expression in SupT1 cells treated with CADA reduced to 1.2%.

[5] = MT-4 cells, read-out: CC50 (50% cytotoxic concentration)
[6] = SupT1 cells, read-out: CC50 (50% cytotoxic concentration)
[7] = Human immunodeficiency virus 1, MT4, MT-4 cells, read-out: IC50 HIV-1 (NL4.3), p24 Ag ELISA
[8] = MT-4 cells, MT4 cells, Table 6, unit inferred, read-out: CC50
[9] = SupT1 cells, Table 6, unit inferred, read-out: CC50
[10] = Human immunodeficiency virus 1, MT4 cells, Table 6, unit inferred, read-out: IC50(HIV-1)

| Compound | IC50 (CD4 [1]) [µM] | CD4 down-modulating activity compared with CADA or parent analog (in words) (CD4 [1]) | CC50 [2, 5] [µg/mL] | CC50 [2, 6] [µg/mL] | IC50 (HHV-7 (KHR strain)) [µg/mL] | IC50 (HIV-1 strain NL4.3; [7]) [µg/mL] | IC50 (CD4 [3]) [µM] | CD4 down-modulating activity, fold less active than CADA (CD4 [1]) [fold] | CD4 down-regulating activity, fold less active than QJ036 (CD4 [1]; compared to QJ036) [fold] | CC50 [2, 8] [µg/mL] | CC50 [2, 9] [µg/mL] | IC50 (HIV-1 strain NL4.3; [10]) [µg/mL] | effect of PKC blocker on the down-modulation of CD4 with CADA (CD4 [4]) |
| --- | --- | --- | --- | --- | --- | --- | --- | --- | --- | --- | --- | --- | --- |
| C=C1CN(S(=O)(=O)c2ccc(COCCCC)cc2)CCCN(Cc2ccccc2)CCCN(S(=O)(=O)c2ccc(COCCCC)cc2)C1 [MFS117] | > 13.8 | significant loss | 18.9 (≈ 26 µM) | > 50 | 0.92 (≈ 1.27 µM) | ≥ 10 | > 68.9 |  |  |  |  |  |  |
| C=C1CN(S(C)(=O)=O)CCCN(Cc2ccccc2)CCCN(S(C)(=O)=O)C1 [MFS105] | > 116 | significant loss | > 50 | > 50 | > 50 | > 50 | > 116 |  |  |  |  |  |  |
| Cc1ccc(S(=O)(=O)N2CCCN(Cc3ccccc3)CCCN(S(=O)(=O)c3ccc(C)cc3)CC(CCl)C2)cc1 [AS117] | 1.81 |  | 30.7 (≈ 49.7 µM) | > 50 | 0.78 (≈ 1.26 µM) | 1.15 (≈ 1.86 µM) | 2.41 | 3 |  |  |  |  |  |
| C=C1CN(S(=O)(=O)c2ccc(C)cc2)CCCN(C(=O)OCC)CCCN(S(=O)(=O)c2ccc(C)cc2)C1 [Compound 95-213] | 11.5 |  | > 50 | > 50 | 0.68 (≈ 1.21 µM) | 8.05 (≈ 14.3 µM) | 17.1 |  |  |  |  |  |  |
| C=C1CN(S(=O)(=O)c2ccc(Br)cc2)CCCN(Cc2ccccc2)CCCN(S(=O)(=O)c2ccc(Br)cc2)C1 [AS-PB127] | 1.98 |  | 35.7 (≈ 50.2 µM) | > 50 | 0.88 (≈ 1.24 µM) | 1.4 (≈ 1.97 µM) | 2.49 | 4 |  |  |  |  |  |
| C=C1CN(S(=O)(=O)c2ccc(C)cc2)CCCN(CC(C)C)CCCN(S(=O)(=O)c2ccc(C)cc2)C1 [Compound 98-035] | 8.78 |  | > 50 | > 50 | 0.7 (≈ 1.28 µM) | 4.82 (≈ 8.8 µM) | 9.73 |  | 4 |  |  |  |  |
| Cc1ccc(S(=O)(=O)N2CCCN(Cc3ccccc3)CCCN(S(=O)(=O)c3ccc(C)cc3)CC(=O)C2)cc1 [MFS010] | > 17.1 | significantly decreased | 29.3 (≈ 50.2 µM) | > 50 | 4.43 (≈ 7.59 µM) | > 10 | > 85.6 |  |  |  |  |  |  |
| C=C1CN(S(=O)(=O)c2ccc(C)cc2)CCCN(CC2CCCCC2)CCCN(S(=O)(=O)c2cccc3c(N(C)C)cccc23)C1 [KKD016, 9-methylcyclohexane-3-methylene-1-(5-dimethylamino-1-naphthalenesulfonyl)-5-p-toluenesulfonyl-1,5,9-triazacyclododecane] |  |  |  |  |  |  |  |  |  | 61.2 (≈ 91.8 µM) | 27.4 (≈ 41.1 µM) | 1.15 (≈ 1.72 µM) |  |
| CN[C@@H]1C[C@H]2O[C@@](C)([C@@H]1OC)n1c3ccccc3c3c4c(c5c6ccccc6n2c5c31)C(=O)NC4 [staurosporine, reference compound] |  |  |  |  |  |  |  |  |  |  |  |  | did not show any effect |
| Cc1ccc(S(=O)(=O)N2CCCN(S(=O)(=O)c3ccc(C)cc3)CC(C)(O)CN(S(=O)(=O)c3ccc(C)cc3)CCC2)cc1 [HJC241] | 2.86 |  | 32 (≈ 48.2 µM) | > 50 | 1.09 (≈ 1.64 µM) | > 10 | > 75.3 |  |  |  |  |  |  |
| C=C1CN(S(=O)(=O)c2ccc(C)cc2)CCCN(Cc2ccccn2)CCCN(S(=O)(=O)c2ccc(C)cc2)C1 [Compound 98-037] | > 85.8 | complete loss of activity | > 50 | > 50 | > 50 | > 50 | > 85.8 |  |  |  |  |  |  |
| C=C1CN(S(=O)(=O)c2ccc(C)cc2)CCCN(Cc2ccccc2)CCCN(S(=O)(=O)c2cccc3c(N(C)C)cccc23)C1 [KKD015, 9-Benzyl-3-methylene-1-(5-dimethylamino-1-naphthalenesulfonyl)-5-p-toluenesulfonyl-1,5,9-triazacyclododecane] |  |  |  |  |  |  |  |  |  | > 100 | > 100 | 6.7 (≈ 10.1 µM) |  |
